This note sets out measurements from PubChem BioAssay (NCI).

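Results reflect a 48-hour exposure of cells in 96-well plates to compound at five concentrations. The concentration for full growth arrest is given as TGI.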

Test systems include NCI/ADR-RES ovarian; UO-31 renal; MOLT-4 leukemia; NCI-H460 lung.
Test in all cases: NCI anticancer screen, dose series, 48 h

In the case of `COc1ccc(P2(=S)SP(=S)(c3ccc(Cl)cc3)S2)cc1` (centres undefined), the TGI with NCI/ADR-RES ovarian, with UO-31 renal, in the assay with MOLT-4 leukemia and in the assay with NCI-H460 lung was greater than 100 µM in each case.

Regarding `C[N+](C)(C)/N=C/c1ccc(O)c(O)c1`, the TGI in the assay with NCI/ADR-RES ovarian, with UO-31 renal, with MOLT-4 leukemia and in the assay with NCI-H460 lung was greater than 100 µM each time.

Turning to `C=CCc1cc(C=C(C#N)C#N)cc(OC)c1O`, the TGI in the assay with NCI/ADR-RES ovarian, in the assay on UO-31 renal, in the assay on MOLT-4 leukemia and in the assay with NCI-H460 lung was greater than 100 µM in each case.

Take `CN(C)CC1CCC/C(=C\c2ccc(OC(=O)/C=C/c3ccccc3)cc2)C1=O` (centres undefined): the TGI with NCI/ADR-RES ovarian is 5.12 µM; with UO-31 renal, 3.66 µM; with MOLT-4 leukemia, greater than 37.1 µM; in the assay with NCI-H460 lung, 21.9 µM.

On to `O=c1oc2ccccc2c(O)c1/C=N/C(=S)NCc1ccccc1`, for which the TGI in the assay with NCI/ADR-RES ovarian, in the assay with UO-31 renal, in the assay on MOLT-4 leukemia and in the assay with NCI-H460 lung was greater than 100 µM throughout.

Consider `CN(C)c1ccc(-c2c(C#N)c(O)n(NS(=O)(=O)c3ccccc3)c(=O)c2C#N)cc1`, for which the TGI in the assay on NCI/ADR-RES ovarian, with MOLT-4 leukemia and with NCI-H460 lung was greater than 100 µM each time.

As to `CSc1c(C(=O)Nc2ccc(C)cc2)c(N)n(N)c(=O)c1C#N`, the TGI in the assay on NCI/ADR-RES ovarian, in the assay on UO-31 renal, in the assay on MOLT-4 leukemia and in the assay on NCI-H460 lung was greater than 100 µM in each case.

Turning to `CC1(C)OCC(C2OC(OC(=O)c3ccc([N+](=O)[O-])cc3)C3OC(C)(C)OC23)O1` (centres undefined), the TGI in the assay with NCI/ADR-RES ovarian, in the assay on UO-31 renal, with MOLT-4 leukemia and in the assay with NCI-H460 lung was greater than 100 µM in each case.

For the compound `COc1cccc(C2ON=C(c3ccccc3)N2C23CC4CC(CC(C4)C2)C3)c1` (centres undefined), the TGI with NCI/ADR-RES ovarian, in the assay on MOLT-4 leukemia and in the assay with NCI-H460 lung was greater than 10 µM each time.

On to `COC(=O)c1ccc(NCc2c(O)ccc(O)c2Br)cc1Cl`, for which the TGI in the assay with NCI/ADR-RES ovarian amounted to 44.9 µM; in the assay with UO-31 renal it was 29.8 µM; in the assay on MOLT-4 leukemia it was 40.9 µM; with NCI-H460 lung it was 41.9 µM.

Consider `CC(=O)Oc1c2c(c(CC=C(C)C)c3c1C(=O)C1=C[C@@H]4CC5C(C)(C)OC(C/C=C(/C)C(=O)O)(C4=O)[C@@]15O3)OC(C)(CCC=C(C)C)C=C2` (some centres undefined), for which the TGI stood at 2.7 µM in the assay with NCI/ADR-RES ovarian, 0.526 µM in the assay with UO-31 renal, 32 µM in the assay with MOLT-4 leukemia and 1.97 µM with NCI-H460 lung.

Take `Cc1c(/C=N/NC(=S)Nc2ccccc2)c(=O)n(-c2ccccc2)n1C`: the TGI with NCI/ADR-RES ovarian, in the assay with UO-31 renal, in the assay with MOLT-4 leukemia and in the assay on NCI-H460 lung was greater than 100 µM throughout.

As to `CCOC(=O)NC(C(=O)OCC)(N1CCN(c2cc3c(cc2F)c(=O)c(C(=O)O)cn3CC)CC1)C(F)(F)F` (centres undefined), the TGI in the assay with NCI/ADR-RES ovarian, in the assay with UO-31 renal, in the assay with MOLT-4 leukemia and in the assay on NCI-H460 lung was greater than 100 µM in each case.

Take `Cc1cc(C)c2c(c1)C1=NCCN1C2(O)c1ccc(Cl)cc1` (centres undefined): the TGI in the assay on NCI/ADR-RES ovarian is 30.2 µM; with UO-31 renal, 26.9 µM; in the assay with MOLT-4 leukemia, greater than 100 µM; in the assay on NCI-H460 lung, 29.3 µM.

For `CCOC(=O)C1=c2[nH]c3cccc4cccc(c43)n2C(=O)CC1c1ccccc1` (centres undefined), the TGI in the assay with NCI/ADR-RES ovarian, in the assay on UO-31 renal, with MOLT-4 leukemia and in the assay with NCI-H460 lung was greater than 100 µM throughout.

Consider `CCCCc1ccc(-n2sc3ncc([N+](=O)[O-])cc3c2=O)cc1`, for which the TGI was found to be 34.4 µM with NCI/ADR-RES ovarian, 35.5 µM in the assay on UO-31 renal, 53.7 µM in the assay on MOLT-4 leukemia and 25.3 µM in the assay with NCI-H460 lung.

Regarding `Cc1cc(C)nc(SCC(=O)OC2CC(C)CCC2C(C)C)n1` (centres undefined), the TGI in the assay with NCI/ADR-RES ovarian was 50.7 µM; in the assay with UO-31 renal it was 33.7 µM; in the assay on MOLT-4 leukemia it was 38.6 µM; in the assay on NCI-H460 lung it was 35.8 µM.

For the compound `COc1cc(C(=O)C2C(=O)c3ccccc3C2C2(O)c3ccccc3CC2C(O)c2cc(OC)c(OC)c(OC)c2)cc(OC)c1OC` (centres undefined), the TGI in the assay on NCI/ADR-RES ovarian, in the assay with UO-31 renal, in the assay on MOLT-4 leukemia and in the assay on NCI-H460 lung was greater than 100 µM throughout.

Turning to `Cn1cc(S(=O)(=O)NC(=O)Nc2ccc(Cl)cc2)c2ccccc21`, the TGI in the assay with NCI/ADR-RES ovarian, with UO-31 renal, with MOLT-4 leukemia and in the assay with NCI-H460 lung was greater than 100 µM each time.

Regarding `CC(C)OP(=O)(OC(C)C)c1ccc2c(c1)OCCOCCOCCOCCO2`, the TGI with UO-31 renal, in the assay with MOLT-4 leukemia and with NCI-H460 lung was greater than 100 µM each time.

For the compound `Cc1ccc(C2N=C(N)NC3=C2CCOc2c3ccc3ccccc23)cc1` (centres undefined), the TGI is greater than 60.5 µM with NCI/ADR-RES ovarian, greater than 100 µM in the assay on UO-31 renal, greater than 74.8 µM with MOLT-4 leukemia and greater than 100 µM in the assay on NCI-H460 lung.

In the case of `CC(C)COC(=O)OC(=O)c1ccc(N(C)Cc2cnc3nc(N)nc(N)c3n2)cc1`, the TGI in the assay with NCI/ADR-RES ovarian, in the assay with UO-31 renal, in the assay on MOLT-4 leukemia and in the assay on NCI-H460 lung was greater than 100 µM in each case.

As for `COc1ccc(-c2nnc3n(Cc4ccccc4)c4ccccc4n3c2=O)cc1`, the TGI in the assay on NCI/ADR-RES ovarian, in the assay with UO-31 renal, in the assay with MOLT-4 leukemia and in the assay on NCI-H460 lung was greater than 100 µM each time.

With `O=C(OC[C@H]1C[C@H]2C(=O)CCC[C@H]2O1)c1ccccc1`, the TGI in the assay on NCI/ADR-RES ovarian, in the assay with UO-31 renal, with MOLT-4 leukemia and in the assay on NCI-H460 lung was greater than 100 µM in each case.

Consider `NNC1=N/C(=C\c2ccco2)C(=O)N1`, for which the TGI in the assay with NCI/ADR-RES ovarian, in the assay on UO-31 renal and in the assay with MOLT-4 leukemia was greater than 100 µM in each case.

For the compound `COC(CC1(/C=C/O[Si](C(C)C)(C(C)C)C(C)C)C(=O)N(COCC[Si](C)(C)C)c2ccccc21)OC` (centres undefined), the TGI in the assay on NCI/ADR-RES ovarian, with UO-31 renal, in the assay on MOLT-4 leukemia and with NCI-H460 lung was greater than 100 µM each time.

Consider `CCN1C(=O)/C(=C2\SC(c3ccccc3)(c3ccccc3)c3ccccc32)SC1=S`, for which the TGI in the assay on NCI/ADR-RES ovarian, in the assay with UO-31 renal, in the assay on MOLT-4 leukemia and in the assay with NCI-H460 lung was greater than 100 µM throughout.
